In ChEMBL document CHEMBL4196088, “Induction of cell killing and autophagy by amphiphilic pyrrolidine derivatives on human pancreatic cancer cells” (Eur J Med Chem, 2018):

How the values were obtained:
PANC-1 [1] = assay: Induction of apoptosis in human PANC1 cells assessed as accumulation at sub-G0/G1 phase at 10 uM after 24 hrs by propidium iodide staining based flow cytometry (reference value: 0.6 to 0.7%); assay type: functional
BXPC-3 [2] = assay: Induction of apoptosis in human BxPC3 cells harboring pSFFV-Bcl-XL assessed as accumulation at sub-G0/G1 phase at 10 uM after 48 hrs by propidium iodide staining based flow cytometry (reference value: 1.9%); assay type: functional
PANC-1 [3] = assay: Induction of apoptosis in human PANC1 cells assessed as accumulation at sub-G0/G1 phase at 10 uM after 72 hrs by propidium iodide staining based flow cytometry (reference value: 1.6 to 3.2%); assay type: functional
SK-BR-3 = assay: Growth inhibition of human SKBR3 cells after 72 hrs; assay type: functional, cell-based; settings: SK-BR-3, 72 h
PK9 [4] = assay: Induction of apoptosis in human PK9 cells assessed as accumulation at sub-G0/G1 phase at 10 uM after 48 hrs by propidium iodide staining based flow cytometry (reference value: 3.8%); assay type: functional
[5] = Induction of apoptosis in HPNE cells assessed as accumulation at sub-G0/G1 phase at 10 uM after 72 hrs by propidium iodide staining based flow cytometry (reference value: 6.6%); assay type: cell-based; settings: human
PANC-1 [6] = assay: Induction of apoptosis in human PANC1 cells assessed as accumulation at sub-G0/G1 phase at 20 uM after 72 hrs by propidium iodide staining based flow cytometry (reference value: 1.6 to 3.2%); assay type: functional
BXPC-3 [7] = assay: Induction of apoptosis in human BxPC3 cells assessed as accumulation at sub-G0/G1 phase at 10 uM after 24 hrs by propidium iodide staining based flow cytometry (reference value: 1.8%); assay type: functional
[8] = Induction of apoptosis in HPNE cells assessed as accumulation at sub-G0/G1 phase at 20 uM after 72 hrs by propidium iodide staining based flow cytometry (reference value: 6.6%); assay type: cell-based; settings: human
PANC-1 [9] = assay: Induction of apoptosis in human PANC1 cells assessed as accumulation at sub-G0/G1 phase at 20 uM after 24 hrs by propidium iodide staining based flow cytometry (reference value: 0.6 to 0.7%); assay type: functional
PANC-1 [10] = assay: Induction of apoptosis in human PANC1 cells assessed as accumulation at sub-G0/G1 phase at 10 uM after 48 hrs by propidium iodide staining based flow cytometry (reference value: 0.2 to 2.9%); assay type: functional
[11] = Induction of apoptosis in HPNE cells assessed as accumulation at sub-G0/G1 phase at 20 uM after 48 hrs by propidium iodide staining based flow cytometry (reference value: 0.7%); assay type: cell-based; settings: human
PK9 [12] = assay: Induction of apoptosis in human PK9 cells assessed as accumulation at sub-G0/G1 phase at 20 uM after 48 hrs by propidium iodide staining based flow cytometry (reference value: 3.8%); assay type: functional
BXPC-3 [13] = assay: Induction of apoptosis in human BxPC3 cells assessed as accumulation at sub-G0/G1 phase at 20 uM after 72 hrs by propidium iodide staining based flow cytometry (reference value: 3.4%); assay type: functional
PK9 [14] = assay: Induction of apoptosis in human PK9 cells assessed as accumulation at sub-G0/G1 phase at 20 uM after 24 hrs by propidium iodide staining based flow cytometry (reference value: 2.2%); assay type: functional
PANC-1 [15] = assay: Induction of apoptosis in human PANC1 cells assessed as accumulation at sub-G0/G1 phase at 20 uM after 48 hrs by propidium iodide staining based flow cytometry (reference value: 0.2 to 2.9%); assay type: functional
PK9 [16] = assay: Induction of apoptosis in human PK9 cells assessed as accumulation at sub-G0/G1 phase at 10 uM after 24 hrs by propidium iodide staining based flow cytometry (reference value: 2.2%); assay type: functional
BXPC-3 [17] = assay: Induction of apoptosis in human BxPC3 cells assessed as accumulation at sub-G0/G1 phase at 10 uM after 72 hrs by propidium iodide staining based flow cytometry (reference value: 3.4%); assay type: functional
BXPC-3 [18] = assay: Induction of apoptosis in human BxPC3 cells assessed as accumulation at sub-G0/G1 phase at 20 uM after 24 hrs by propidium iodide staining based flow cytometry (reference value: 2.3%); assay type: functional
BXPC-3 [19] = assay: Induction of apoptosis in human BxPC3 cells assessed as accumulation at sub-G0/G1 phase at 10 uM after 48 hrs by propidium iodide staining based flow cytometry (reference value: 2.8%); assay type: functional
PK9 [20] = assay: Induction of apoptosis in human PK9 cells assessed as accumulation at sub-G0/G1 phase at 20 uM after 72 hrs by propidium iodide staining based flow cytometry (reference value: 4%); assay type: functional
BXPC-3 [21] = assay: Induction of apoptosis in human BxPC3 cells assessed as accumulation at sub-G0/G1 phase harboring pSFFV-Bcl-XL at 20 uM after 48 hrs by propidium iodide staining based flow cytometry (reference value: 1.3%); assay type: functional
BXPC-3 [22] = assay: Induction of apoptosis in human BxPC3 cells assessed as accumulation at sub-G0/G1 phase at 20 uM after 48 hrs by propidium iodide staining based flow cytometry (reference value: 2.8%); assay type: functional
PK9 [23] = assay: Induction of apoptosis in human PK9 cells assessed as accumulation at sub-G0/G1 phase at 10 uM after 72 hrs by propidium iodide staining based flow cytometry (reference value: 4%); assay type: functional
BXPC-3 [24] = assay: Induction of apoptosis in human BxPC3 cells assessed as accumulation at sub-G0/G1 phase harboring pSFFV-Bcl-XL at 20 uM after 24 hrs by propidium iodide staining based flow cytometry (reference value: 1.2%); assay type: functional
[25] = Induction of apoptosis in HPNE cells assessed as accumulation at sub-G0/G1 phase at 20 uM after 24 hrs by propidium iodide staining based flow cytometry (reference value: 0.6%); assay type: cell-based; settings: human
[26] = Induction of apoptosis in HPNE cells assessed as accumulation at sub-G0/G1 phase at 10 uM after 48 hrs by propidium iodide staining based flow cytometry (reference value: 0.7%); assay type: cell-based; settings: human
BXPC-3 [27] = assay: Induction of apoptosis in human BxPC3 cells harboring pSFFV-Bcl-XL assessed as accumulation at sub-G0/G1 phase at 10 uM after 72 hrs by propidium iodide staining based flow cytometry (reference value: 2%); assay type: functional
BXPC-3 [28] = assay: Induction of apoptosis in human BxPC3 cells harboring pSFFV-Bcl-XL assessed as accumulation at sub-G0/G1 phase at 10 uM after 24 hrs by propidium iodide staining based flow cytometry (reference value: 1.5%); assay type: functional
[29] = Induction of apoptosis in HPNE cells assessed as accumulation at sub-G0/G1 phase at 10 uM after 24 hrs by propidium iodide staining based flow cytometry (reference value: 0.6%); assay type: cell-based; settings: human
BXPC-3 [30] = assay: Induction of apoptosis in human BxPC3 cells assessed as accumulation at sub-G0/G1 phase harboring pSFFV-Bcl-XL at 20 uM after 72 hrs by propidium iodide staining based flow cytometry (reference value: 1.3%); assay type: functional

Compound: CCCCCCCCCCCCCCCCOC[C@H]1NC[C@H](O)[C@@H]1O
- Activity (PANC-1 [1]): 3.1%
- Activity (BXPC-3 [2]): 4.2%
- Activity (PANC-1 [3]): 4.1%
- IC50 (SK-BR-3): 50 µM
- Activity (PK9 [4]): 3.5%
- Activity [5]: 3.1%
- Activity (PANC-1 [6]): 12.8%
- Activity (BXPC-3 [7]): 3.5%
- Activity [8]: 66.8%
- Activity (PANC-1 [9]): 4.4%
- Activity (PANC-1 [10]): 3.5%
- Activity [11]: 62.1%
- Activity (PK9 [12]): 4.6%
- Activity (BXPC-3 [13]): 21.7%
- Activity (PK9 [14]): 2.6%
- Activity (PANC-1 [15]): 4.8%
- Activity (PK9 [16]): 2%
- Activity (BXPC-3 [17]): 7.5%
- Activity (BXPC-3 [18]): 7.1%
- Activity (BXPC-3 [19]): 5.7%
- Activity (PK9 [20]): 2.8%
- Activity (BXPC-3 [21]): 4.8%
- Activity (BXPC-3 [22]): 16.9%
- Activity (PK9 [23]): 2.6%
- Activity (BXPC-3 [24]): 4.4%
- Activity [25]: 53.9%
- Activity [26]: 2.2%
- Activity (BXPC-3 [27]): 5.8%
- Activity (BXPC-3 [28]): 3.9%
- Activity [29]: 2.6%
- Activity (BXPC-3 [30]): 7.6%

Compound: O[C@H]1[C@@H](O)CN[C@@H]1COCCCCCCCC/C=C/c1ccc(Oc2ccccc2)cc1
- Activity (PANC-1 [1]): 3.1%
- Activity (BXPC-3 [2]): 4.8%
- Activity (PANC-1 [3]): 4.4%
- IC50 (SK-BR-3): 15 µM
- Activity (PK9 [4]): 4.4%
- Activity [5]: 7.9%
- Activity (PANC-1 [6]): 29.3%
- Activity (BXPC-3 [7]): 3.9%
- Activity [8]: 85.8%
- Activity (PANC-1 [9]): 9.9%
- Activity (PANC-1 [10]): 3.8%
- Activity [11]: 81.4%
- Activity (PK9 [12]): 5.2%
- Activity (BXPC-3 [13]): 20.3%
- Activity (PK9 [14]): 4.6%
- Activity (PANC-1 [15]): 33.1%
- Activity (PK9 [16]): 3.4%
- Activity (BXPC-3 [17]): 8.3%
- Activity (BXPC-3 [18]): 8.7%
- Activity (BXPC-3 [19]): 6.6%
- Activity (PK9 [20]): 6.2%
- Activity (BXPC-3 [21]): 4.5%
- Activity (BXPC-3 [22]): 16.2%
- Activity (PK9 [23]): 3.1%
- Activity (BXPC-3 [24]): 4.4%
- Activity [25]: 79.1%
- Activity [26]: 6.8%
- Activity (BXPC-3 [27]): 4.8%
- Activity (BXPC-3 [28]): 3.6%
- Activity [29]: 6.5%
- Activity (BXPC-3 [30]): 4.3%
